Assays:
[1] = system: P. Aeruginosa and E. Aerogenes; assay: Example 5: pulp slurry bactericidal efficacy of NaOCl with N-hydrogen compounds (1:1); type: cell-based; conditions: for efficacy enhancement over sodium hypochlorite alone / Final Bacteria: NaOCl to N-hydrogen compound 1:1 molar; for efficacy enhancement over sodium hypochlorite alone / log reduction of bacteria: Example 5; for log reduction of bacteria: 5 ppm halogen
Experimental: (§1) The addition of 5,5-dimethylhydantoin (DMH) to sodium hypochlorite solutions enhances the biocidal activity of sodium hypochlorite. The conditions of this experiment were a modification of ASTM E 600-91. Two biocide solutions were evaluated: NaOCl and NaOCl mixed with DMH in a 0.25:1 molar ratio. The NaOCl and the DMH were mixed prior to pulp introduction. The biocides were introduced to the pulp slurry 10 minutes prior to inoculation with 2×10^6 cfu/ml P. Aeruginosa and E. Aerogenes. The pulp slurry consisted of 1.3% ground aspen wood pulp and 200 ppm rosin adjusted to pH=5.0-5.5 with aluminum sulfate. Bacteria populations were measured 3 hours after pulp slurry inoculation. Final total halogen concentrations were measured at the time of bacterial population plating by sample centrifuging followed by standard DPD analyses. Biocides were neutralized with sodium thiosulfate prior to plating.
(§2) The conditions were the same as those of Example 1. The molar ratio of the NaOCl to N-hydrogen compound was 1:1.

[2] = system: P. Aeruginosa and E. Aerogenes; assay: Example 2: bactericidal efficacy of NaOCl added to DMH-treated pulp slurry; type: cell-based; conditions: for Final Bacteria: NaOCl added to pulp slurry (DMH-treated for 1:1 system)
Experimental: as §1
(§3) Prereaction of DMH with NaOCl as described in Example 1 was not required. The conditions of this experiment were in other respects the same as Example 1. The molar ratio in the pulp slurry was 1:1 NaOCl to DMH.

[3] = system: P. Aeruginosa and E. Aerogenes; assay: Example 3: bactericidal efficacy in preinoculated pulp slurry samples; type: cell-based; conditions: for Final Bacteria: pulp inoculated 5 minutes prior to biocide
Experimental: as §1
(§4) The conditions were the same as Example 1 except that the pulp was inoculated with bacteria 5 minutes prior to biocide introduction as opposed to 10 minutes after. Also the NaOCl to DMH mole ratio was increased from 0.25:1 to 1:1.

[4] = system: P. Aeruginosa and E. Aerogenes; assay: Example 1: pulp slurry bactericidal efficacy (modified ASTM E 600-91), biocide added 10 minutes prior to inoculation; type: cell-based; conditions: for Final Bacteria: inoculum 2×10^6 cfu/ml, 3 hours after inoculation
Experimental: as §1

[5] = system: bacteria; conditions: residual chlorine concentrations of 1.6 ppm as Cl2; U.S. Pat. No. 3,328,294; cited from earlier work
[6] = Example 4: halogen consumption in non-inoculated pulp slurry vs NaOCl:DMH molar ratio; type: physicochemical; conditions: initial total halogen 25.6 ppm as Cl2; pulp slurry not inoculated
Experimental: as §1, §3
The experimental conditions were the same as those of Example 2, except that the pulp slurry was not inoculated with bacteria.

[7] = Example 2: final total halogen in DMH-treated pulp slurry; type: physicochemical; conditions: NaOCl added to pulp slurry (DMH-treated for 1:1 system)
Experimental: as §1, §3

[8] = Example 5: final total halogen in pulp slurry with N-hydrogen compounds; type: physicochemical; conditions: for % Residual Halogen / Total Halogen Final: NaOCl to N-hydrogen compound 1:1 molar
Experimental: as §1, §2

[9] = system: P. Aeruginosa and E. Aerogenes; assay: Example 7: pulp slurry bactericidal efficacy of N-halohydantoin compound; type: cell-based; conditions: conditions of Example 1
Experimental: as §1
(§5) Specifically, Dantochlor®, a commercial halogenated hydantoin containing predominantly dichlorodimethylhydantoin and dichloroethylmethylhydantoin was used. The conditions were the same as those of Example 1.

[10] = Example 1: final total halogen in pulp slurry (DPD analyses); type: physicochemical; conditions: 3 hours after inoculation; for Total Halogen Final: 1.3% aspen pulp slurry pH 5.0-5.5; for % Residual Halogen: pulp slurry pH 5.0-5.5
Experimental: as §1

[11] = Example 3: final total halogen in preinoculated pulp slurry; type: physicochemical; conditions: pulp inoculated 5 minutes prior to biocide
Experimental: as §1, §4

[12] = Example 7: final total halogen in pulp slurry; type: physicochemical; conditions: conditions of Example 1
Experimental: as §1, §5

[13] = initial total halogen 3 ppm as Cl2
[14] = initial total halogen 5 ppm as Cl2
[15] = initial total halogen 7.5 ppm as Cl2
[16] = initial total halogen 10 ppm as Cl2
[17] = initial total halogen 15 ppm as Cl2
[18] = initial total halogen 0.8 ppm as Cl2
[19] = initial total halogen 3.4 ppm as Cl2
[20] = initial total halogen 16.3 ppm as Cl2
[21] = initial total halogen 1.0 ppm as Cl2
[22] = initial total halogen 3.0 ppm as Cl2
[23] = initial total halogen 5.0 ppm as Cl2

NS(=O)(=O)O [Sulfamic acid, sulfamic acid]
efficacy enhancement over sodium hypochlorite alone [1]: no efficacy enhancement

CC1(C)NC(=O)NC1=O [DMH, 5,5-dimethylhydantoin]
increase in efficacy of NaOCl in the presence of DMH ([2]; 3 ppm with DMH vs 5 ppm in its absence, Example 2): twofold
log reduction in bacteria concentration ([2]; initial halogen concentration 3 ppm, in the presence of DMH, Example 2): 2 log
log reduction of bacteria ([3]; dosage 0.8 ppm halogen, in the presence of DMH, preinoculated samples, Example 3): 3 log
increase in efficacy of NaOCl in the presence of DMH ([4]; 1 ppm halogen with DMH equivalent to 5 ppm halogen alone, Example 1): fivefold

O=S(=O)(O)NCl [N-chlorosulfamate]
bacterial concentrations achieved [5]: 10^3 cfu/ml

[Na+].[O-]Cl [NaOCl, sodium hypochlorite]
Final Bacteria [2, 13]: 10^5 cfu/ml
Final Bacteria [2, 14]: 10^4 cfu/ml
Final Bacteria [2, 15]: <10^3 cfu/ml
Final Bacteria [2, 16]: <10^3 cfu/ml
Final Bacteria [2, 17]: <10^3 cfu/ml
% Residual Halogen [6]: 0.4%
Total Halogen Final [6]: 0.11 ppm as Cl2
Final Bacteria [3, 18]: 10^4 cfu/ml
Final Bacteria [3, 19]: <10^3 cfu/ml
Final Bacteria [3, 20]: <10^3 cfu/ml
% Residual Halogen [7, 13]: 0.0%
Total Halogen Final [7, 13]: 0.00 ppm as Cl2
% Residual Halogen [7, 14]: 0.4%
Total Halogen Final [7, 14]: 0.02 ppm as Cl2
% Residual Halogen [7, 15]: 0.5%
Total Halogen Final [7, 15]: 0.06 ppm as Cl2
% Residual Halogen [7, 16]: 0.4%
Total Halogen Final [7, 16]: 0.04 ppm as Cl2
% Residual Halogen [7, 17]: 0.7%
Total Halogen Final [7, 17]: 0.11 ppm as Cl2
Final Bacteria [4, 21]: 10^5 cfu/ml
Final Bacteria [4, 22]: 10^4 cfu/ml
Final Bacteria [4, 23]: ≦10^3 cfu/ml
Final Bacteria [4, 15]: ≦10^3 cfu/ml
Final Bacteria [4, 16]: ≦10^3 cfu/ml
% Residual Halogen [8, 21]: 0.0%
Total Halogen Final [8, 21]: 0.00 ppm as Cl2
% Residual Halogen [8, 22]: 0.7%
Total Halogen Final [8, 22]: 0.02 ppm as Cl2
% Residual Halogen [8, 23]: 0.6%
Total Halogen Final [8, 23]: 0.03 ppm as Cl2
Final Bacteria [9, 23]: ≦10^3 cfu/ml
Final Bacteria [9, 15]: ≦10^3 cfu/ml
Total Halogen Final [10, 21]: 0.00 ppm as Cl2
% Residual Halogen [10, 21]: 0%
Total Halogen Final [10, 22]: 0.00 ppm as Cl2
% Residual Halogen [10, 22]: 0%
Total Halogen Final [10, 23]: 0.00 ppm as Cl2
% Residual Halogen [10, 23]: 0%
Total Halogen Final [10, 15]: 0.04 ppm as Cl2
% Residual Halogen [10, 15]: 0.5%
Total Halogen Final [10, 16]: 0.08 ppm as Cl2
% Residual Halogen [10, 16]: 0.8%
% Residual Halogen [11, 18]: 1.3%
Total Halogen Final [11, 18]: 0.01 ppm as Cl2
% Residual Halogen [11, 19]: 1.0%
Total Halogen Final [11, 19]: 0.03 ppm as Cl2
% Residual Halogen [11, 20]: 2.1%
Total Halogen Final [11, 20]: 0.34 ppm as Cl2
log reduction of bacteria [1]: 1 log
Final Bacteria [1, 21]: 10^6 cfu/ml
Final Bacteria [1, 22]: 10^5 cfu/ml
Final Bacteria [1, 23]: 10^5 cfu/ml
% Residual Halogen [12, 23]: 0.4%
Total Halogen Final [12, 23]: 0.02 ppm as Cl2
% Residual Halogen [12, 15]: 1%
Total Halogen Final [12, 15]: 0.05 ppm as Cl2

CCC1(C)NC(=O)NC1=O (stereo not drawn) [MEH, 5-ethyl-5-methylhydantoin]
mitigation of halogen decomposition ([8]; compared with cyanuric acid, Example 5): greatest mitigation of halogen decomposition
log reduction of bacteria [1]: 3 log
efficacy enhancement over sodium hypochlorite alone [1]: dramatically increased NaOCl efficacy

— USRE39021E1, “Hydantoin-enhanced halogen efficacy in pulp and paper applications” (Lonza Inc., priority 1994, dated 2006)
